Patent publication US20130085073A1, “CONTINUOUS EXTENSION AND DEBLOCKING IN REACTIONS FOR NUCLLEIC ACIDS SYNTHESIS AND SEQUENCING” (ILLUMINA CAMBRIDGE LIMITED, priority 2011, published 2013)

Assays:
[1] = Fluorescence emission of quencher/dye labelled nucleotide; assay type: physicochemical
Method: The fluorescence emission of an approx. 4 μM solution of the quencher/dye labelled nucleotide 22, a 4 μM solution of Atto532 dye and an equimolar mixture of Atto532 dye and quencher labelled nucleotide 21 (4 μM) were measured in 10 mM Tris buffer pH 8.0, between 500 nm and 700 nm (excitation wavelength: 532 nm) (FIG. 23). The fluorescence of the nucleotide 22 was approximately 1500-fold lower than that of the free dye in solution, and approximately 1100-fold lower than the equimolar solution of the free dye and the quencher labelled nucleotide 21.

Pol 217 = Pol 217 catalyzed primer extension: incorporation of blocked nucleotide analog into primer DNA (urea gel analysis); assay type: biochemical; details: for incorporation of phosphodiester blocked nucleotides by Pol 217: nucleotide 10 μM
Method: Pol 217 (15 μg/ml) was incubated at 30° C. in Pol buffer (50 mM TRIS pH 7.5, 0.05% Tween 20, 6 mM MgSO4, 1 mM EDTA, 50 mM NaCl) with 20 nM DNA (P21 primer annealed to Diff template AG). A time zero aliquot was taken for each concentration and then pppT3′PO4(EO2 was added at 10, 5, 2 or 1 μM final concentration to start the reaction. Tubes are incubated at 30° C. and aliquots were taken at 0.33, 0.66, 1, 2, 5, and 15 mins from the 4 reaction tubes for quenching and 15% urea acrylamide gel analysis. 1 mM dNTPs were added to the remaining 4 reaction tubes and after a further 10 mins an aliquot was taken for gel analysis (chase).
Pol 217 was tested in Pol buffer at 55° C.
Incorporation of gamma hexynyl-pppT3′PO4Me2 was tested in Pol buffer at 65° C. with 10 μM nucleotide and 15 μg/mlpolymerase (Pol217 or Bst). A time zero sample was removed before initiation of the reaction with nucleotide and aliquots were quenched for gel analysis at 0.33, 0.66, 1, 2, 5 and 15 minutes.

Bst = target: T1, Bst (Geobacillus stearothermophilus, UniProt P52026); experiment: Bst polymerase primer extension with blocked nucleotide analog (gel analysis); assay type: biochemical
T1 sequence (P52026 1-876): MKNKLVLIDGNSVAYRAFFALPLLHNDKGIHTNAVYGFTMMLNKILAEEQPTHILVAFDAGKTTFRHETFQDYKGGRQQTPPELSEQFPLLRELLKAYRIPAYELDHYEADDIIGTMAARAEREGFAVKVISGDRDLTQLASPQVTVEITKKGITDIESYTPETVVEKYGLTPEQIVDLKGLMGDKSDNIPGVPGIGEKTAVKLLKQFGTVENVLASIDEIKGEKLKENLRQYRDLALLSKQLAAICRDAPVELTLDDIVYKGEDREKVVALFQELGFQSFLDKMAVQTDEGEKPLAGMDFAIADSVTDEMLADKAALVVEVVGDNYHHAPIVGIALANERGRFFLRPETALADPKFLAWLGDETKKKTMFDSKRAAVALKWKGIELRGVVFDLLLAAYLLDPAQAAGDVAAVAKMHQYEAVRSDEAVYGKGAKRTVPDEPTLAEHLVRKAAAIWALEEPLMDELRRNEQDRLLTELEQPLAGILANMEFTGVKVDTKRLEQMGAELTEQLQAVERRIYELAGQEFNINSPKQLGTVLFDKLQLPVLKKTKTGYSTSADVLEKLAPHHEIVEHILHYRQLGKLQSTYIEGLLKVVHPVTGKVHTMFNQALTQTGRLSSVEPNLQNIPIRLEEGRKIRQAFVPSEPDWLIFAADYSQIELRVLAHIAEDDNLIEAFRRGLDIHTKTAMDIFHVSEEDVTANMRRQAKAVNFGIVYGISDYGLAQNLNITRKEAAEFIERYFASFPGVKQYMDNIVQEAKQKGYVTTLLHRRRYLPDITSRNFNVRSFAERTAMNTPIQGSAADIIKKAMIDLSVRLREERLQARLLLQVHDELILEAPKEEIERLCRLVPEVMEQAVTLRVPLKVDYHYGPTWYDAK
Method: Incorporation of gamma hexynyl-pppT3′PO4Me2 was tested in Pol buffer at 65° C. with 10 μM nucleotide and 15 μg/mlpolymerase (Pol217 or Bst). A time zero sample was removed before initiation of the reaction with nucleotide and aliquots were quenched for gel analysis at 0.33, 0.66, 1, 2, 5 and 15 minutes. After 15 minutes, 5 μl of 100 μM dNTPs was added to the remaining reaction tubes (˜20 μl) and incubation continued for 10 mins before a chase aliquot was taken for gel analysis. Thus, for each polymerase there was a time course of 0, 0.33, 0.66, 1, 2, 5, 15 mins and chase shown from left to right across the gel in FIG. 13.

Endonuclease IV = Endonuclease IV (Escherichia coli, UniProt P0A6C1); details: 0.1 mM nucleotide, 500 units/mL Endonuclease IV, 37° C., pH 7.9, up to 3 days
Description: Aliquots were taken at set time points and analyzed by HPLC chromatography.

Vent exo- = Vent exo- (Thermococcus litoralis, UniProt P30317, D141A/DEL1082-1471/DEL495-1032/E143A); experiment: Vent exo- polymerase primer extension with blocked nucleotide analog (gel analysis); assay type: biochemical; details: conditions tested; chase lane showed active polymerase
Klenow = target: T2, Klenow (Escherichia coli, UniProt P00582); experiment: Klenow polymerase primer extension with blocked nucleotide analog (gel analysis); assay type: biochemical; details: conditions tested; chase lane showed active polymerase
T2 construct: Bst, Vent exo- and Klenow polymerases were tested

E. coli EndoIV = E. coli EndoIV (Escherichia coli, UniProt P0A6C1); details: for EndoIV removal of phosphotriester blocking moiety from primer DNA extended with the nucleotide: large quantities of E. coli EndoIV, 37° C. or 55° C., extended incubation times
Method: Primer DNA with either a 3′ PO4PrOH block (−ve and EndoIV) or a free 3′OH (+ve) was radiolabelled and bound to an A template strand. […] Aliquots were removed at 0, 5, 15, 30 and 60 min for quenching and gel analysis (left to right respectively). “+ve” is the time course for unblocked DNA plus EndoIV, “EndoIV” is blocked DNA plus E. coli EndoIV and “−ve” is blocked DNA without E. coli EndoIV.
Similar reactions to those described above in the context of FIG. 7 were conducted, but the blocked extension products were generated using Pol 217 to incorporate various phosphotriester nucleotides onto the primer DNA. […] Phosphotriester blocking moieties tested included pppT3′PO4(Et)2, pppT3′PO4(Et)(Pr-Cap), pppT3′PO4(Et)(PrOH), pppT3′PO4MeBu and pppT3′PO4(Et)(SSOH).
A ^33P biotinylated 10 A template hairpin (62mer) was bound to magnetic streptavidin beads (4 pmoles) (1) and incubated with Pol217 (15 μg/ml) in Pol buffer and 10 μM pppT3′PO4MeBu for 10 mins at 55° C. […] The DNA was then removed to a magnet and washed twice in 1×B+W buffer (5 mM TRIS pH 7.5, 0.5 mM EDTA, 1M NaCl) and then washed twice in Ada buffer (50 mM TRIS pH 8.3, 1 mM EDTA, 3 mM DTT, 1 mg/ml BSA). The DNA was then incubated in Ada buffer with Ada protein (225 pmoles) at 37° C. for 3 h (3). The DNA was then removed to a magnet and washed twice in 1×B+W and then twice in NEB 3 buffer and then divided into 2 aliquots. To one aliquot (4) (2 pmoles) was added Pol 217 (15 μg/ml), E. coli EndoIV 10 U and FFT (5 μM) in NEB 3 buffer to a total volume of 100 μl. The sample was incubated at 37° C. and at time points of 0, 3, 10, 30, 60 and 120 mins a 5 μl sample was removed and quenched for 12% gel analysis. After 120 mins 10 μl of 100 μM dNTP was added to the remaining sample to chase the primer to the end (if not blocked) and an aliquot was taken and quenched after a further 20 mins at 37° C. […] The second aliquot (2 pmoles) was treated similarly, but no E. coli Endo IV was added to the reaction mixture (w/o EndoIV).
Eight pmoles of biotinylated 10 A hairpin DNA (62mer) bound to magnetic streptavidin beads (1) was incubated with Pol 217 (15 μg/ml) in Pol buffer with 10 μM pppT3′PO4(Et)(SSOH) in 200 μl at 55° C. for 15 mins (2). Then 2 μl of 100 mM tri(hydroxylpropyl)phosphine (THP) was added to the tube and the samples incubated for a further 5 mins at 55° C. […] The DNA was then removed to a magnet and washed twice in 1×B+W and twice in NEB 3 buffer. The DNA was then divided into two aliquots. To the first aliquot (4 pmoles) was added 4 U E. coli EndoIV, 15 μg/ml Pol 217, 10 μM pppT3′PO4MeBu in 100 μl of NEB3 buffer (4) and the other aliquot (4 pmoles) had the same additions but no EndoIV (w/o EndoIV). At time points of 0, 1, 5, 10, 30, 60 and 120 mins and sample was removed and quenched for 12% gel analysis.

Pol 427 = Pol 427 catalyzed primer extension: incorporation of blocked nucleotide analog (gel analysis); assay type: biochemical; details: Pol buffer, 37° C., 1 h, Pol 427 30 μg/ml
[2] = system: Pol 217, E. coli Endo IV, Ada protein; experiment: Single pot multi-cycle extension with Pol 217, Ada protein and Endo IV (gel); assay type: biochemical; details: 37° C., 10 μM nucleotide
Method: A tube was incubated at 37° C. containing Pol 217 (15 μg/ml-16.5 pmoles), E. coli Endo IV (10 U), Ada protein (1000 pmoles) in 100 μl of 50 mM TRIS pH 8.0, 1 mg/ml BSA, 50 mM NaCl, 10 mM MgSO4 with 2 pmoles of primer (21mer) annealed to 10 A template DNA. After a time zero aliquot was removed and quenched for gel analysis, the reaction was started by the addition of 10 μM pppT3′PO4MeBu. At time points of 10, 30, 60, 120 and 240 minutes an aliquot was removed and quenched for gel analysis. Negative controls are shown where one protein was left out of the mixture in turn. A positive control for incorporation is shown of 10 μM FFT.

[3] = approx. 4 μM, 10 mM Tris pH 8.0, excitation 532 nm

T2 sequence (P00582 324-928): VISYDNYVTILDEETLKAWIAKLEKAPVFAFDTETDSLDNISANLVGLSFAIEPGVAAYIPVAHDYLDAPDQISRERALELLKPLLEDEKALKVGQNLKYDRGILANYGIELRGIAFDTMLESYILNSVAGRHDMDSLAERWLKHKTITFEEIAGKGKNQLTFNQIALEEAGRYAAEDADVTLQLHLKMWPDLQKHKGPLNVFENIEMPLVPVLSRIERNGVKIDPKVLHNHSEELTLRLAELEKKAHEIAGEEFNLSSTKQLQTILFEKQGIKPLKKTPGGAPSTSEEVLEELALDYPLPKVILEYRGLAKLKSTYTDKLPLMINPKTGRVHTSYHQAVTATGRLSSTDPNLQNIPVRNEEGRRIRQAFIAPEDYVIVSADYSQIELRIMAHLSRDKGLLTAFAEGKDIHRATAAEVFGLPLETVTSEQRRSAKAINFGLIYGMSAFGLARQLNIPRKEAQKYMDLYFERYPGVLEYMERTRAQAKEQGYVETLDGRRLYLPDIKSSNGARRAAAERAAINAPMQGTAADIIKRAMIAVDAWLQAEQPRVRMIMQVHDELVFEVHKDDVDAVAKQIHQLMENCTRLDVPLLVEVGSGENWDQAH
Vent exo-, sequence (P30317 other isoform, or with tags, fused parts or gaps D141A/E143A/DEL495-1032/DEL1082-1471): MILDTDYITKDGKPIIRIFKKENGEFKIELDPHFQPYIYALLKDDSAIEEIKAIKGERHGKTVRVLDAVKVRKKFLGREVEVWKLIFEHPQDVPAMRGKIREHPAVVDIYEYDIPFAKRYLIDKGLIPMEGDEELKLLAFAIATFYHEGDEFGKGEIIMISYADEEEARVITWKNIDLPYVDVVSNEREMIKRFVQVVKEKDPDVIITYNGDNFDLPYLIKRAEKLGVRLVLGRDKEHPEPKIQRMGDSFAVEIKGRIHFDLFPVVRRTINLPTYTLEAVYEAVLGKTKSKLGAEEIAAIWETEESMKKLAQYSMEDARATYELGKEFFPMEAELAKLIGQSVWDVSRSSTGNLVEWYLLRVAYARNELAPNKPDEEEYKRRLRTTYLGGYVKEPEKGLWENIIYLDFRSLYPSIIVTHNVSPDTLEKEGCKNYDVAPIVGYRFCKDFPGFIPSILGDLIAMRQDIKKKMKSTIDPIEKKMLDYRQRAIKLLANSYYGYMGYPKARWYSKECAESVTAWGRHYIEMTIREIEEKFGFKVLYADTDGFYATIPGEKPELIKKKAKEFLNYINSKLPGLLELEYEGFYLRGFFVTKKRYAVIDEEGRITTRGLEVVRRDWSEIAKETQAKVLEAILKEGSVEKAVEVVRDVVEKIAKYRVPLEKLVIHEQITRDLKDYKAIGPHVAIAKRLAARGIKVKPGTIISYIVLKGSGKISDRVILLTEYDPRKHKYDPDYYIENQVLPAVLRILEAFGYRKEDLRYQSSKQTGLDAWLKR

Question: For “5′-(γ-(BHQ2-peg3)triphosphate) 3′-(O-(12-(Atto532)amidododecyl)phosphate)thymidine [nucleotide 22]”, which “fluorescence lower than that of the free dye (Atto532) in solution” value [1, 3] is on record?
Answer: approximately 1500 fold

Question: And the “fluorescence lower than the equimolar solution of free dye and quencher labelled nucleotide 21” value [1, 3]?
Answer: approximately 1100 fold

Question: What about the “quenching of fluorescence emission by BHQ2” value ([1]; dye and quencher both on the nucleotide) of the same compound?
Answer: > 99%

Question: Which “quenching of free Atto532 dye by quencher labelled nucleotide in equimolar mixture” value ([1]; 4 μM each, 10 mM Tris pH 8.0, excitation 532 nm) does the source give for “5′-(γ-(BHQ2-peg3)triphosphate) 3′-(O-(12-aminododecyl)phosphate)thymidine [nucleotide 21]” here?
Answer: does not quench efficiently

Question: For `C#CCCCCOP(=O)(O)OP(=O)(O)OP(=O)(O)OCC1OC(n2cc(C)c(=O)[nH]c2=O)CC1OP(=O)(OC)OC` (stereo not drawn) [gamma hexynyl-pppT3′PO4Me2, 5′-(γ-(5-hexynyl)triphosphate) 3′-(O,O′-dimethyl phosphate) thymidine], which “incorporation by Pol 217 and chase” value (Pol 217; Pol buffer, 65° C., 10 μM nucleotide, 0-15 min then dNTP chase) is on record?
Answer: an incorporation band of n+1 was generated over time which did not chase away

Question: What about the “band for extended primer with Bst” value (Bst; Pol buffer, 65° C., 10 μM nucleotide) of the same compound?
Answer: absent

Question: For `CCOP(=O)(O)OC1CC(n2cc(C)c(=O)[nH]c2=O)OC1COP(=O)(O)O` (stereo not drawn) [pT-3′PO4Et, 5′ monophosphate T-3′PO4Et], which “removal of 3′ phosphodiester blocking moiety from free nucleotide by EndoIV (HPLC)” value (Endonuclease IV) is on record?
Answer: No deblocked pT-3′PO4Et was observed even after 3 days

Question: What does the source list for `CCOP(=O)(OCC)O[C@H]1C[C@H](n2cc(C)c(=O)[nH]c2=O)O[C@@H]1COP(=O)(O)OP(=O)(O)OP(=O)(O)O` [pppT3′PO4(Et)2, 5′-triphosphate 3′-(O,O′-diethyl phosphate) thymidine]?
Answer: extension of primer after chase with natural dNTPs (3′ block) (Pol 217; 30° C., 1 mM dNTPs chase, 10 mins): creates a 3′ blocked primer; incorporation into primer DNA by Pol 217 (n+1 band) (Pol 217; 30° C., Pol buffer, nucleotide 10, 5, 2 or 1 μM, 20 nM DNA, 0-15 min): extension by one base; time to complete incorporation by Pol217 (Pol 217; 65° C., incorporation buffer, 10 μM nucleotide): ≤ 20 s; incorporation by Bst polymerase (Bst; conditions tested, chase lane showed active polymerase): did not show any incorporation bands; incorporation by Vent exo- polymerase (Vent exo-): did not show any incorporation bands; incorporation by Klenow polymerase (Klenow): did not show any incorporation bands; EndoIV removal of phosphotriester blocking moiety from primer DNA extended with the nucleotide (E. coli EndoIV): failed to allow subsequent incorporation

Question: With `CCOP(=O)(OCc1cc2c(cc1[N+](=O)[O-])OCO2)O[C@H]1C[C@H](n2cc(C)c(=O)[nH]c2=O)O[C@@H]1COP(=O)(O)OP(=O)(O)OP(=O)(O)O` (stereo partly drawn) [pppT3′PO4(Et)(NPIP), 5′-triphosphate 3′-(O-ethyl, O′-(6-nitropiperonyl)phosphate) thymidine] as the compound, how does the “incorporation into primer by Pol 427” value (Pol 427) read?
Answer: converted to n+1

Question: Which “EndoIV removal of phosphotriester blocking moiety from primer DNA extended with the nucleotide” value (E. coli EndoIV) does the source give for `CCOP(=O)(OCCCO)OC1CC(n2cc(C)c(=O)[nH]c2=O)OC1COP(=O)(O)OP(=O)(O)OP(=O)(O)O` (stereo not drawn) [pppT3′PO4(Et)(PrOH)] here?
Answer: failed to allow subsequent incorporation

Question: With `CCOP(=O)(O)O[C@H]1C[C@H](n2cc(C)c(=O)[nH]c2=O)O[C@@H]1COP(=O)(O)OP(=O)(O)OP(=O)(O)O` [pppT3′PO4Et, 5′ triphosphate 3′ (O-ethyl phosphate) thymidine] as the compound, how does the “incorporation of phosphodiester blocked nucleotides by Pol 217” value (Pol 217; Pol buffer, 55° C.) read?
Answer: low level incorporation was observed

Question: For `CCCCOP(=O)(OC)O[C@H]1C[C@H](n2cc(C)c(=O)[nH]c2=O)O[C@@H]1COP(=O)(O)OP(=O)(O)OP(=O)(O)O` (stereo partly drawn) [pppT3′PO4MeBu, 5′ triphosphate 3′ (O-methyl, O′-butyl phosphate) thymidine], which “incorporation into 10 A hairpin DNA on streptavidin beads by Pol 217” value (Pol 217; Pol buffer, 55° C., 10 μM nucleotide, 10-15 mins) is on record?
Answer: converted to n+1

Question: What about the “length of extension product in single pot reaction, all three proteins present” value ([2]; 10-240 minutes) of the same compound?
Answer: gradually increased over the time course from n+1 to n+2, then n+3, then n+4

Question: And the “incorporation in single pot reaction in the absence of Ada or EndoIV” value ([2]; no Ada or no EndoIV)?
Answer: a single incorporation event occurred

Question: And the “EndoIV unblocking of extended primer after Ada protein treatment” value (E. coli EndoIV; Ada protein 37° C. 3 h, then E. coli EndoIV 10 U, Pol 217, FFT, 37° C., 0-120 mins)?
Answer: unblocked by EndoIV

Question: And the “EndoIV removal of phosphotriester blocking moiety from primer DNA extended with the nucleotide” value (E. coli EndoIV)?
Answer: failed to allow subsequent incorporation

Question: Which “incorporation of phosphodiester blocked nucleotides by Pol 217” value (Pol 217; Pol buffer, 55° C.) does the source give for `Cc1cn(C2CC(OP(=O)(O)OCCCO)C(COP(=O)(O)OP(=O)(O)OP(=O)(O)O)O2)c(=O)[nH]c1=O` (stereo not drawn) [pppT3′PO4PrOH] here?
Answer: substantial incorporation was not observed

Question: With `Cc1cn(C2CC(OP(=O)(O)O)C(COP(=O)(O)OP(=O)(O)OP(=O)(O)O)O2)c(=O)[nH]c1=O` (stereo not drawn) [pppT 3′PO4] as the compound, how does the “incorporation of phosphodiester blocked nucleotides by Pol 217” value (Pol 217; Pol buffer, 55° C.) read?
Answer: incorporation was observed but the band on the gel chased away
